Counter-ions that a name gives are not always drawn.
Columns and labels:
PI3Kδ = target: T1, PI3Kδ (Homo sapiens, UniProt O00329); assay: PI3K enzyme inhibitory activity in the cell free assay (ADP-Glo Kinase Assay); type: biochemical; settings: human recombinant PI3Kδ, ATP 80 μM; read-out: PI3K delta inhibition
T1 construct: purchased Millipore Ltd (Billerica, Mass.)
T1 sequence (O00329 1-1044): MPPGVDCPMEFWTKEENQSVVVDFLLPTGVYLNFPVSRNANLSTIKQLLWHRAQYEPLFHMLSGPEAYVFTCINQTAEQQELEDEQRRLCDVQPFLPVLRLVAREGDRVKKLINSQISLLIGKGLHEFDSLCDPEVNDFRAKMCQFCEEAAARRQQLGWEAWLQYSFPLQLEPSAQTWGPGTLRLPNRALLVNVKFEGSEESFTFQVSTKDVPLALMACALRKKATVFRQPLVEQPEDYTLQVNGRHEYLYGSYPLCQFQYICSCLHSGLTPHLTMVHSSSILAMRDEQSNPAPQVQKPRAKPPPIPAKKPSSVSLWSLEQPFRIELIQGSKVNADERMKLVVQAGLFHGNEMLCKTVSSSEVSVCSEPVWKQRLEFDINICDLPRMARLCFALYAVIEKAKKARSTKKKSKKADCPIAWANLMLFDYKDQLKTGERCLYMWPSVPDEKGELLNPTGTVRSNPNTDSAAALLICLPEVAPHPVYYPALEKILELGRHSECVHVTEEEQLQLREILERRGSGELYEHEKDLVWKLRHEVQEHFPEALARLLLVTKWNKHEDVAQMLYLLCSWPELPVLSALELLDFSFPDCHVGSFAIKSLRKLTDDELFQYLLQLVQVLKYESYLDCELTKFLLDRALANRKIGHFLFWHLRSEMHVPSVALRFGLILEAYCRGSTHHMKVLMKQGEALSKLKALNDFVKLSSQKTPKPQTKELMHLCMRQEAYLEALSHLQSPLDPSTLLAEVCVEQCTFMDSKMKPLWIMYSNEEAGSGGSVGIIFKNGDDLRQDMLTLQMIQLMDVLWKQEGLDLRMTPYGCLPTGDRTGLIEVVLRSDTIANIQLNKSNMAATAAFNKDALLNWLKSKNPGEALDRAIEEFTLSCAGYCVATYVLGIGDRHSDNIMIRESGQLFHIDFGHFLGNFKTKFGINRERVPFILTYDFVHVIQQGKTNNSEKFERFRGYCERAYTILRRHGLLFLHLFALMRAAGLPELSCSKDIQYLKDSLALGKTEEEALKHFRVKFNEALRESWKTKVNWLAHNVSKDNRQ

PI3Kγ = target: T2, PI3Kγ (Homo sapiens, UniProt P48736); assay: as above; type: biochemical; settings: human recombinant PI3Kγ, ATP 30 μM; read-out: PI3K gamma inhibition
T2 construct: purchased Millipore Ltd (Billerica, Mass.)
T2 sequence (P48736 whole entry): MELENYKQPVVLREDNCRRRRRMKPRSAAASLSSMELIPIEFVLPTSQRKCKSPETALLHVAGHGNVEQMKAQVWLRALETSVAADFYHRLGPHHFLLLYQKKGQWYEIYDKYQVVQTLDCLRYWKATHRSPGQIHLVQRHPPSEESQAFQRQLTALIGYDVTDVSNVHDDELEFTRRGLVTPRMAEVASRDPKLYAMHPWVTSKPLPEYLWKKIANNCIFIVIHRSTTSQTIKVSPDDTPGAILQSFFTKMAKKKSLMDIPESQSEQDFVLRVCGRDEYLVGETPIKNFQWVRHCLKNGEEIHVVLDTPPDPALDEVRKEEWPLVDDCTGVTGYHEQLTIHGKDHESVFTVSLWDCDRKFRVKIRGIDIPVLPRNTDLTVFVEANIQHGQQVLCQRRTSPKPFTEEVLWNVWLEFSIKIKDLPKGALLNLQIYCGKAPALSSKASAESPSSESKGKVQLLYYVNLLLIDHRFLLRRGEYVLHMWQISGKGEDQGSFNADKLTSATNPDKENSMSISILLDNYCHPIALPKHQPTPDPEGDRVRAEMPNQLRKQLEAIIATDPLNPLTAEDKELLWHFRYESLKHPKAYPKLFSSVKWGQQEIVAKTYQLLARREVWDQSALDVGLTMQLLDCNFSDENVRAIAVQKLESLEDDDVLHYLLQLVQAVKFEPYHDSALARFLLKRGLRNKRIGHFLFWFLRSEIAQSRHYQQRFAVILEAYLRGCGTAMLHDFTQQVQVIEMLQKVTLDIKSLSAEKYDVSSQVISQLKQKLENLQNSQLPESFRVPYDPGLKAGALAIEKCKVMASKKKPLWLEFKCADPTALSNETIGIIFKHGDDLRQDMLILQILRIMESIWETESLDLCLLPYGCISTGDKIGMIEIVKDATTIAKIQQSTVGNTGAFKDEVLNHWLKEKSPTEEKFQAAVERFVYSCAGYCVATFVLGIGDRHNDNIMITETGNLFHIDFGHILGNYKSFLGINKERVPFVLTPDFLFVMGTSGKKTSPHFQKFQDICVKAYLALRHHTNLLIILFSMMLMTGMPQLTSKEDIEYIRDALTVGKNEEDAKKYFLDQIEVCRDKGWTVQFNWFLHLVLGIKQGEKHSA

SMILES	IC50 (PI3Kδ) [µM]	IC50 (PI3Kγ) [µM]
O=c1oc(CSc2ncnc3[nH]cnc23)c(-c2ccccc2)c2ccccc12 [Example 10, 3-((9H-Purin-6-ylthio)methyl)-4-phenyl-1H-isochromen-1-one]	> 1	> 1
CC(c1oc(=O)c2ccccc2c1-c1cccc(S(=O)(=O)N2CCOCC2)c1)n1ncc2c(N)ncnc21 (centres unmarked) [Example 16, 3-(1-(4-Amino-1H-pyrazolo[3,4-d]pyrimidin-1-yl)ethyl)-4-(3-(morpholinosulfonyl)phenyl)-1H-isochromen-1-one]	0.01 to 1	0.01 to 1
O=c1oc(CNc2ncnc3[nH]cnc23)c(-c2cccc(F)c2)c2ccccc12 [Example 21, 3-((9H-Purin-6-ylamino)methyl)-4-(3-fluorophenyl)-1H-isochromen-1-one]	0.01 to 1	0.01 to 1
CC(Nc1ncnc2[nH]cnc12)c1oc(=O)c2ccccc2c1-c1ccc(OCCN2CCOCC2)cc1 (centres unmarked) [Example 26, 3-(1-(9H-Purin-6-ylamino)ethyl)-4-(4-(2-morpholinoethoxy)phenyl)-1H-isochromen-1-one formate]	0.01 to 1	0.01 to 1
Cc1cccc(-c2c(CNc3ncnc4[nH]cnc34)oc(=O)c3ccccc23)c1 [Example 31, 3-((9H-Purin-6-ylamino)methyl)-4-m-tolyl-1H-isochromen-1-one]	0.01 to 1	0.01 to 1
Cc1n[nH]c2ccc(-c3nn(Cc4oc(=O)c5ccccc5c4-c4ccccc4)c4ncnc(N)c34)cc12 [Example 37, 3-((4-Amino-3-(3-methyl-1H-indazol-5-yl)-1H-pyrazolo[3,4-d]pyrimidin-1-yl)methyl)-4-phenyl-1H-isochromen-1-one]	0.01 to 1	> 1
CC(Nc1ncnc2[nH]ncc12)c1oc(=O)c2ccccc2c1-c1ccccc1 (centres unmarked) [Example 43, 3-(1-(1H-pyrazolo[3,4-d]pyrimidin-4-ylamino)ethyl)-4-phenyl-1H-isochromen-1-one]	0.01 to 1	> 1
CC(c1oc(=O)c2ccccc2c1-c1ccccc1)n1nc(-c2ccnnc2)c2c(N)ncnc21 (centres unmarked) [Example 53, 3-(1-(4-amino-3-(pyridazin-4-yl)-1H-pyrazolo[3,4-d]pyrimidin-1-yl)ethyl)-4-phenyl-1H-isochromen-1-one]	0.01 to 1	> 1
CC(c1oc(=O)c2ccccc2c1-c1ccccc1)n1nc(-c2ccncc2)c2c(N)ncnc21 (centres unmarked) [Example 54, 3-(1-(4-amino-3-(pyridin-4-yl)-1H-pyrazolo[3,4-d]pyrimidin-1-yl)ethyl)-4-phenyl-1H-isochromen-1-one]	0.01 to 1	0.01 to 1
COc1cncc(-c2nn(C(C)c3oc(=O)c4ccccc4c3-c3ccccc3)c3ncnc(N)c23)c1 (centres unmarked) [Example 57, 3-(1-(4-amino-3-(5-methoxypyridin-3-yl)-1H-pyrazolo[3,4-d]pyrimidin-1-yl)ethyl)-4-phenyl-1H-isochromen-1-one]	0.01 to 1	0.01 to 1
CC(Nc1ncnc2ccsc12)c1oc(=O)c2ccccc2c1-c1ccc(CN2CCOCC2)s1 (centres unmarked) [Example 81, 4-(5-(morpholinomethyl)thiophen-2-yl)-3-(1-(thieno[3,2-d]pyrimidin-4-ylamino)ethyl)-1H-isochromen-1-one hydrochloride]	0.01 to 1	> 1
CC(Nc1ncnn2cccc12)c1oc(=O)c2ccccc2c1-c1ccccc1 (centres unmarked) [Example 83, 4-phenyl-3-(1-(pyrrolo[2,1-f][1,2,4]triazin-4-ylamino)ethyl)-1H-isochromen-1-one]	0.01 to 1	> 1
CC(Nc1ncnc2cccnc12)c1oc(=O)c2ccccc2c1-c1ccccc1 (centres unmarked) [Example 84, 4-phenyl-3-(1-(pyrido[3,2-d]pyrimidin-4-ylamino)ethyl)-1H-isochromen-1-one]	0.01 to 1	0.01 to 1
CC(c1oc(=O)c2ccccc2c1-c1ccccc1)n1nc(-c2cncc(CO)c2)c2c(N)ncnc21 (centres unmarked) [Example 85, 3-(1-(4-amino-3-(5-(hydroxymethyl)pyridin-3-yl)-1H-pyrazolo[3,4-d]pyrimidin-1-yl)ethyl)-4-phenyl-1H-isochromen-1-one]	0.01 to 1	0.01 to 1
CC(c1oc(=O)c2ccccc2c1-c1ccccc1)n1nc(-c2ccnc(N)n2)c2c(N)ncnc21 (centres unmarked) [Example 89, 3-(1-(4-amino-3-(2-aminopyrimidin-4-yl)-1H-pyrazolo[3,4-d]pyrimidin-1-yl)ethyl)-4-phenyl-1H-isochromen-1-one hydrochloride]	> 1	0.01 to 1
CC(C)Oc1ccc(-c2nn(C(C)c3oc(=O)c4ccccc4c3-c3ccccc3)c3ncnc(N)c23)cc1F (centres unmarked) [Example 93, 3-(1-(4-amino-3-(3-fluoro-4-isopropoxyphenyl)-1H-pyrazolo[3,4-d]pyrimidin-1-yl)ethyl)-4-phenyl-1H-isochromen-1-one]	0.01 to 1	0.01 to 1
CC(c1oc(=O)c2ccccc2c1-c1ccccc1)n1nc(-c2cncc(F)c2)c2c(N)ncnc21 (centres unmarked) [Example 94, 3-(1-(4-amino-3-(5-fluoropyridin-3-yl)-1H-pyrazolo[3,4-d]pyrimidin-1-yl)ethyl)-4-phenyl-1H-isochromen-1-one]	0.01 to 1	0.01 to 1
CC(Nc1ncnc2ccsc12)c1oc(=O)c2ccccc2c1-c1ccccc1 (centres unmarked) [Example 109, 4-phenyl-3-(1-(thieno[3,2-d]pyrimidin-4-ylamino)ethyl)-1H-isochromen-1-one]	0.01 to 1	0.01 to 1
CC(Nc1ncnc2[nH]cnc12)c1oc(=O)c2ccccc2c1-c1ccc(CN2CCNCC2)cc1 (centres unmarked) [Example 126, 3-(1-(9H-purin-6-ylamino)ethyl)-4-(4-(piperazin-1-ylmethyl)phenyl)-1H-isochromen-1-one dihydrochloride]	0.01 to 1	0.01 to 1

Second part, the molecule after the results:

IC50 (PI3Kδ) [µM]	IC50 (PI3Kγ) [µM]	SMILES
0.01 to 1	0.01 to 1	CC(c1oc(=O)c2ccccc2c1-c1cccc(S(=O)(=O)N2CCOCC2)c1)n1cnc2c(N)ncnc21 (centres unmarked) [Example 9, 3-(1-(6-Amino-9H-purin-9-yl)ethyl)-4-(3-(morpholinosulfonyl)phenyl)-1H-isochromen-1-one]
0.01 to 1	> 1	Cc1cccc(-c2c(C(C)Sc3ncnc4[nH]cnc34)oc(=O)c3ccccc23)c1 (centres unmarked) [Example 13, 3-(1-(9H-Purin-6-ylthio)ethyl)-4-m-tolyl-1H-isochromen-1-one]
0.01 to 1	> 1	CC(Sc1ncnc2[nH]cnc12)c1oc(=O)c2ccccc2c1-c1cccc(F)c1 (centres unmarked) [Example 14, 3-(1-(9H-Purin-6-ylthio)ethyl)-4-(3-fluorophenyl)-1H-isochromen-1-one]
< 0.01	0.01 to 1	CC(Nc1ncnc2[nH]cnc12)c1oc(=O)c2ccccc2c1-c1cccc(F)c1 (centres unmarked) [Example 32, 3-(1-(9H-purin-6-ylamino)ethyl)-4-(3-fluorophenyl)-1H-isochromen-1-one]
< 0.01	0.01 to 1	Cc1cccc(-c2c(C(C)Nc3ncnc4[nH]cnc34)oc(=O)c3ccccc23)c1 (centres unmarked) [Example 33, 3-(1-(9H-Purin-6-ylamino)ethyl)-4-m-tolyl-1H-isochromen-1-one]
< 0.01	0.01 to 1	CC(c1oc(=O)c2ccccc2c1-c1ccc(CN2CCOCC2)cc1)n1nc(-c2cc(O)cc(F)c2)c2c(N)ncnc21 (centres unmarked) [Example 48, 3-(1-(4-amino-3-(3-fluoro-5-hydroxyphenyl)-1H-pyrazolo[3,4-d]pyrimidin-1-yl)ethyl)-4-(4-(morpholinomethyl)phenyl)-1H-isochromen-1-one hydrochloride]
< 0.01	0.01 to 1	COc1ncc(-c2nn(C(C)c3oc(=O)c4ccccc4c3-c3ccccc3)c3ncnc(N)c23)cn1 (centres unmarked) [Example 55, 3-(1-(4-amino-3-(2-methoxypyrimidin-5-yl)-1H-pyrazolo[3,4-d]pyrimidin-1-yl)ethyl)-4-phenyl-1H-isochromen-1-one]
< 0.01	0.01 to 1	CC(c1oc(=O)c2ccccc2c1-c1ccccc1)n1nc(-c2ccc(CO)nc2)c2c(N)ncnc21 (centres unmarked) [Example 86, 3-(1-(4-amino-3-(6-(hydroxymethyl)pyridin-3-yl)-1H-pyrazolo[3,4-d]pyrimidin-1-yl)ethyl)-4-phenyl-1H-isochromen-1-one]
< 0.01	> 1	CC(c1oc(=O)c2ccccc2c1-c1ccccc1)n1nc(-c2ccc(S(C)(=O)=O)nc2)c2c(N)ncnc21 (centres unmarked) [Example 97, 3-(1-(4-amino-3-(6-(methylsulfonyl)pyridin-3-yl)-1H-pyrazolo[3,4-d]pyrimidin-1-yl)ethyl)-4-phenyl-1H-isochromen-1-one]
